Measurements: patent publication US10457654B2 (GENENTECH, INC., priority 2017, dated 2019)
Where a name gives a salt, the structure may show the parent alone.

Tests used:
hNav1.7 [1] = target: T1, hNav1.7 (Homo sapiens (Human), UniProt Q15858); assay: Tritiated compound binding to membranes from cells expressing hNav1.7 and the β1 subunit, modified protocol (LBA, Ex. 243B); settings: 300 pM [3H]compound, room temperature, read-out: Nav1.7 LBA (Ex. 243B) IC50
Target sequence in this assay (Q15858 whole entry, looked up): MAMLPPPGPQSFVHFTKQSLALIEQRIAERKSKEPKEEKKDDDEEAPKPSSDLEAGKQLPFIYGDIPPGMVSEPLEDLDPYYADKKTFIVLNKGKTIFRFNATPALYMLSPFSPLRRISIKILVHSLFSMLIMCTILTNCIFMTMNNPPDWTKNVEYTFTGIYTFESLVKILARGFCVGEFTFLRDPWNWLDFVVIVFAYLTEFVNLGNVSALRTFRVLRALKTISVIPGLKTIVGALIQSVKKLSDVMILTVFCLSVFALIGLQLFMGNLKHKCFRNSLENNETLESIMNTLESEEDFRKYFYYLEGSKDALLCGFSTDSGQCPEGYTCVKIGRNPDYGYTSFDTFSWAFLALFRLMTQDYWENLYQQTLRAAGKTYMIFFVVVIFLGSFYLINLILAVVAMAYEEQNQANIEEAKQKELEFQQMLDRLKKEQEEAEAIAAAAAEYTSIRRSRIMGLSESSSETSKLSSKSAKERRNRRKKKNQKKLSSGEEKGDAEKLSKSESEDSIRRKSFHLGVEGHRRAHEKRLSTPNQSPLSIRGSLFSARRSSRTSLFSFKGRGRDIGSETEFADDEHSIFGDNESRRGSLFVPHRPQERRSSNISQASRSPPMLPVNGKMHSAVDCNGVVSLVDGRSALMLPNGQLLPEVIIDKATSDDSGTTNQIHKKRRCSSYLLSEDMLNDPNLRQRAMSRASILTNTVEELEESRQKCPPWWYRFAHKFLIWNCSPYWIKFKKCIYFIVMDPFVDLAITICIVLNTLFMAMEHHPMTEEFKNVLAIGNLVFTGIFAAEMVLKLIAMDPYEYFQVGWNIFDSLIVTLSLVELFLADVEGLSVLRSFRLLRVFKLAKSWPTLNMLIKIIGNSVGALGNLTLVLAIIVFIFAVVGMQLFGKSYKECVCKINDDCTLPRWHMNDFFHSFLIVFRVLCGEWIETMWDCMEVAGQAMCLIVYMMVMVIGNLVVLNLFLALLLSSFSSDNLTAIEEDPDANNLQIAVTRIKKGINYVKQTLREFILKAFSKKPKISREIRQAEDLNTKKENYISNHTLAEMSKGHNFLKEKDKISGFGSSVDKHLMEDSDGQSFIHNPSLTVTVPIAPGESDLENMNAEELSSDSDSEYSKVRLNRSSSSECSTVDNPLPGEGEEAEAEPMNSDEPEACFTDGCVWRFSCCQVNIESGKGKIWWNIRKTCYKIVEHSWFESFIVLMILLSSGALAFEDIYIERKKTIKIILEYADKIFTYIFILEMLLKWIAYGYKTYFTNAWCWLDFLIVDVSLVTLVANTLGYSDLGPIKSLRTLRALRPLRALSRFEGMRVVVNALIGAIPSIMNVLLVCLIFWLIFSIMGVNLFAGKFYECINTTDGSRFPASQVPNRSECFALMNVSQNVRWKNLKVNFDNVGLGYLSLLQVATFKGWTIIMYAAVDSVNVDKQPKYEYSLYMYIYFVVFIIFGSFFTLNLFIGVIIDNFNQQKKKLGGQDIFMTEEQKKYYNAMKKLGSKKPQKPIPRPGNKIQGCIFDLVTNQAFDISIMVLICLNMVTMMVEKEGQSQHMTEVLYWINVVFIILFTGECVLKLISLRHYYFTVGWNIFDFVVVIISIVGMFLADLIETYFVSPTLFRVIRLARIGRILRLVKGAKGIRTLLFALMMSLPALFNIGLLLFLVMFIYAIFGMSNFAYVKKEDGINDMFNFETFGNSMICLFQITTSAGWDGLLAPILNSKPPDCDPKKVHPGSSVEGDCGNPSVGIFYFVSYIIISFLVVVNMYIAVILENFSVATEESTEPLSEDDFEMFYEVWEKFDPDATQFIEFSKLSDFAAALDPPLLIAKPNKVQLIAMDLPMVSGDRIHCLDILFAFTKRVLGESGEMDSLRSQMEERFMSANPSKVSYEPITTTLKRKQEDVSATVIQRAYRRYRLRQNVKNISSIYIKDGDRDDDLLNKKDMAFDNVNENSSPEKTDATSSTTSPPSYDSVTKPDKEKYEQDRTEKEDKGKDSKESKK
Target sequence in this assay (Q07699 whole entry partner, looked up): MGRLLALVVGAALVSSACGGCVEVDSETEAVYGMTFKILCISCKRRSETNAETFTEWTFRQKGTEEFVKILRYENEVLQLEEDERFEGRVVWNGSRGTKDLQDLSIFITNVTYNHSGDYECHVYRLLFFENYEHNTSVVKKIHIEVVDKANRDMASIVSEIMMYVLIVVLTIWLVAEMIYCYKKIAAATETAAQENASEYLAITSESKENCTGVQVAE

hNav1.7 [2] = target: T1, hNav1.7; assay: Patch voltage clamp electrophysiology assay (EP), Syncropatch 384PE, CHO cells expressing Nav1.7; format: cell-based; settings: holding potential -50 mV; […] compound incubation; read-out: EP_SP hNav1.7 (Ex. 243B) IC50
How it was run: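 Automated whole-cell patch clamp on CHO cells stably expressing human Nav1.7, CsCl/EGTA internal and NMDG/80 mM Na+ external (pH 7.4). From −50 mV holding, −10 mV step, 20 ms recovery at −150 mV, then second −10 mV pulse where block is measured; inhibition after 7.5 min compound incubation.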
Target sequence in this assay (Q15858 other isoform, or with tags, fused parts or gaps): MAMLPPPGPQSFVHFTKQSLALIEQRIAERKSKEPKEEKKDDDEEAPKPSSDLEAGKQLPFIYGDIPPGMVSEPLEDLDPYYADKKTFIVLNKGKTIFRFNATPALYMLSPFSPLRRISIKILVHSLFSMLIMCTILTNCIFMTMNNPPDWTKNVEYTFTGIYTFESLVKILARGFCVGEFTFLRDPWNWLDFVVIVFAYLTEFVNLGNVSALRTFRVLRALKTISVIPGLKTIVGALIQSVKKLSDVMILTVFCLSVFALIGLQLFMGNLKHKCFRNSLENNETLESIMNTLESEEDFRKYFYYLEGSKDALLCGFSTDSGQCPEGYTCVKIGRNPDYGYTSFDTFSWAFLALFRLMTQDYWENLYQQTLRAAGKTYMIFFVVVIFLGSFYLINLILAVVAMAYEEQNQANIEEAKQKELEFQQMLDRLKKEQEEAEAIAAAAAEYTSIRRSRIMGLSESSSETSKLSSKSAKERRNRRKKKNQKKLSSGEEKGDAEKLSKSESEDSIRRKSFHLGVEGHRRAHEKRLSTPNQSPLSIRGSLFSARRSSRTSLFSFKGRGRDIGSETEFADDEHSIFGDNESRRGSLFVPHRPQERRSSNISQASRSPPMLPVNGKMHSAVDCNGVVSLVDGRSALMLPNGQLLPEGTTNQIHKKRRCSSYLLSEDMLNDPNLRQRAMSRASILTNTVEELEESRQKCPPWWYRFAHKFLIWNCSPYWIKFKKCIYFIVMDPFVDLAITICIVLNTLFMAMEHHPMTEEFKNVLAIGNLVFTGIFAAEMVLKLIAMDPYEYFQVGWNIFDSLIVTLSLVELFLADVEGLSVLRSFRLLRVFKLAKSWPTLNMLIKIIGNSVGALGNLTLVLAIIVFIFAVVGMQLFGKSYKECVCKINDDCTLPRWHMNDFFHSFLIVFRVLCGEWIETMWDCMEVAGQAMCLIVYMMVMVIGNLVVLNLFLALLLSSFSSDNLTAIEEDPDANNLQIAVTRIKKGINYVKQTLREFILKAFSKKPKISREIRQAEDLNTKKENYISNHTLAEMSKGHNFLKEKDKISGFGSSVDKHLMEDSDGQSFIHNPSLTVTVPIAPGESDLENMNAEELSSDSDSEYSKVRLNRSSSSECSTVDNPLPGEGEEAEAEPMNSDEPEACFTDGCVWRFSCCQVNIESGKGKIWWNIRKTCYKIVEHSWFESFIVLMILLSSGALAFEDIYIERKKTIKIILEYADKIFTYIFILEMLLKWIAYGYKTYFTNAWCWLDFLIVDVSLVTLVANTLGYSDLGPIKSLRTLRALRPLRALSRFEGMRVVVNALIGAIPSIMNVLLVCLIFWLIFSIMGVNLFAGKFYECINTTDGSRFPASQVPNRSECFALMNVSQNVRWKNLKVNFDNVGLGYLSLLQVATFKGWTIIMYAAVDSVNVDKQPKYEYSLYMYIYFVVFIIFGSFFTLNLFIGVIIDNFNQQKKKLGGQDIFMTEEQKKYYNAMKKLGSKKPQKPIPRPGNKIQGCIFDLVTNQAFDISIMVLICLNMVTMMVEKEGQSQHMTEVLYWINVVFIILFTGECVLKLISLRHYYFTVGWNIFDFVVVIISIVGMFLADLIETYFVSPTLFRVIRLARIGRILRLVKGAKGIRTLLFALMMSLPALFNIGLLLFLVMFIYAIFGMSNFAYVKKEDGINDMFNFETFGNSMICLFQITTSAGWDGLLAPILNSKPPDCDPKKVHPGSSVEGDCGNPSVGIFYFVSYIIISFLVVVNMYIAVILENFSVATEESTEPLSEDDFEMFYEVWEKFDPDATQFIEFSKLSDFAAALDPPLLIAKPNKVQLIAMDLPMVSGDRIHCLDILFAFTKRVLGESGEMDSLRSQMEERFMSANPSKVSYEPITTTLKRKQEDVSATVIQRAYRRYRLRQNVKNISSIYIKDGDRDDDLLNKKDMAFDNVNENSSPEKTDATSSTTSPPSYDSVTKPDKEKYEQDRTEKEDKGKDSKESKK

Structure (SMILES) | IC50 (hNav1.7 [1]) [nM] | IC50 (hNav1.7 [2]) [nM]
N#C[C@@H]1CCCN([C@H]2CCCC[C@@H]2Nc2cc(F)c(S(=O)(=O)Nc3nccs3)cc2Cl)C1 [Example 176, 5-Chloro-4-(((1S,2S)-2-((R)-3-cyanopiperidin-1-yl)cyclohexyl)amino)-2-fluoro-N-(thiazol-2-yl)benzenesulfonamide] | 491 | 8.72
N#C[C@H]1CCCN([C@H]2CCCC[C@@H]2Nc2cc(F)c(S(=O)(=O)Nc3nccs3)cc2Cl)C1 [Example 177, 5-chloro-4-(((1S,2S)-2-((S)-3-cyanopiperidin-1-yl)cyclohexyl)amino)-2-fluoro-N-(thiazol-2-yl)benzenesulfonamide] | 60.9 | 2.91
CN(C)[C@H]1C[C@@H](C(F)(F)F)CC[C@@H]1Nc1cc(F)c(S(=O)(=O)Nc2ccncn2)cc1C1CC1 [Example 178, 5-cyclopropyl-4-(((1S,2S,4S)-2-(dimethylamino)-4-(trifluoromethyl)cyclohexyl)amino)-2-fluoro-N-(pyrimidin-4-yl)benzenesulfonamide] | 205 | 19.1
CN1CC(C(=O)N(C)[C@H]2CCCC[C@@H]2Nc2cc(F)c(S(=O)(=O)Nc3nccs3)cc2Cl)C1 [Example 179, N-((1S,2S)-2-((2-Chloro-5-fluoro-4-(N-(thiazol-2-yl)sulfamoyl)phenyl)amino)cyclohexyl)-N,1-dimethylazetidine-3-carboxamide] | 270 | 6.83
CN(C1CCC1)[C@H]1C[C@@H](C(F)(F)F)CC[C@@H]1Nc1cc(F)c(S(=O)(=O)Nc2ccncn2)cc1Cl [Example 180, 5-chloro-4-(((1S,2S,4S)-2-(cyclobutyl(methyl)amino)-4-(trifluoromethyl)cyclohexyl)amino)-2-fluoro-N-(pyrimidin-4-yl)benzenesulfonamide] | 666 | 49.5
CN(C)[C@H]1C[C@@H](c2cccc(C(F)(F)F)c2)CC[C@@H]1Nc1cc(F)c(S(=O)(=O)Nc2ccncn2)cc1Cl [Example 181, 5-chloro-4-[[(1S,2S,4S)-2-(dimethylamino)-4-[3-(trifluoromethyl)phenyl]cyclohexyl]amino]-2-fluoro-N-pyrimidin-4-yl-benzenesulfonamide] | 1.31 | 0.783
O=S(=O)(Nc1ccncn1)c1cc(Cl)c(N[C@@H]2CCCC[C@H]2N2CC3C(C2)C3(F)F)cc1F (stereo partly drawn) [Example 182, 5-chloro-4-(((1R,2R)-2-(6,6-difluoro-3-azabicyclo[3.1.0]hexan-3-yl)cyclohexyl)amino)-2-fluoro-N-(pyrimidin-4-yl)benzenesulfonamide] | 2000 | 1520
O=S(=O)(Nc1ccncn1)c1cc(Cl)c(N[C@H]2CCCC[C@@H]2N2CC3C(C2)C3(F)F)cc1F (stereo partly drawn) [Example 183, 5-chloro-4-(((1S,2S)-2-(6,6-difluoro-3-azabicyclo[3.1.0]hexan-3-yl)cyclohexyl)amino)-2-fluoro-N-(pyrimidin-4-yl)benzenesulfonamide] | 277 | 12
O=S(=O)(Nc1cccc(F)n1)c1cc(Cl)c(N[C@@H]2CCCC[C@H]2N2C[C@@H]3[C@@H](CO)[C@@H]3C2)cc1F [Example 184] | 2000 | 4960
O=S(=O)(Nc1cccc(F)n1)c1cc(Cl)c(N[C@H]2CCCC[C@@H]2N2C[C@@H]3[C@@H](CO)[C@@H]3C2)cc1F [Example 185] | 771 | 36.2
CN(C)[C@H]1CC(F)(F)CC[C@@H]1Nc1cc(F)c(S(=O)(=O)Nc2nccs2)cc1Cl [Example 187, 5-chloro-4-(((1S,2S)-2-(dimethylamino)-4,4-difluorocyclohexyl)amino)-2-fluoro-N-(thiazol-2-yl)benzenesulfonamide formate] | 776 | 7.65
CN(C)[C@@H]1CC(F)(F)CC[C@H]1Nc1cc(F)c(S(=O)(=O)Nc2nccs2)cc1Cl [Example 188, 5-chloro-4-(((1R,2R)-2-(dimethylamino)-4,4-difluorocyclohexyl)amino)-2-fluoro-N-(thiazol-2-yl)benzenesulfonamide formate] | 2000 | 684
CN1CC(N(CC(F)(F)F)[C@H]2CCCC[C@@H]2Nc2cc(F)c(S(=O)(=O)Nc3nccs3)cc2Cl)C1 [Example 190, 5-Chloro-2-fluoro-4-(((1S,2S)-2-((1-methylazetidin-3-yl)(2,2,2-trifluoroethyl)amino)cyclohexyl)amino)-N-(thiazol-2-yl)benzenesulfonamide] | 478 | 41.5
CN(C)[C@H]1CCC(F)C[C@@H]1Nc1cc(F)c(S(=O)(=O)Nc2nccs2)cc1Cl (stereo partly drawn) [Example 191, 5-chloro-4-(((1S,2S)-2-(dimethylamino)-5-fluorocyclohexyl)amino)-2-fluoro-N-(thiazol-2-yl)benzenesulfonamide formate] | 777 | 39.4
CN(C)[C@H]1C[C@@H](F)CC[C@@H]1Nc1cc(F)c(S(=O)(=O)Nc2nccs2)cc1Cl [Example 192, 5-chloro-4-(((1S,2S,4S)-2-(dimethylamino)-4-fluorocyclohexyl)amino)-2-fluoro-N-(thiazol-2-yl)benzenesulfonamide] | 324 | 25.5
CN(C)[C@H]1C[C@H](F)CC[C@@H]1Nc1cc(F)c(S(=O)(=O)Nc2nccs2)cc1Cl [Example 193, 5-chloro-4-(((1S,2S,4R)-2-(dimethylamino)-4-fluorocyclohexyl)amino)-2-fluoro-N-(thiazol-2-yl)benzenesulfonamide] | 911 | 39.4
CN(C)[C@H]1C[C@@H]2[C@H](C[C@@H]1Nc1cc(F)c(S(=O)(=O)Nc3nccs3)cc1Cl)C2(Cl)Cl [Example 194, 5-Chloro-4-(((1S,3S,4S,6R)-7,7-dichloro-4-(dimethylamino)bicyclo[4.1.0]heptan-3-yl)amino)-2-fluoro-N-(thiazol-2-yl)benzenesulfonamide formate] | 2000 | 400
CN(C)[C@@H]1C[C@@H]2[C@H](C[C@H]1Nc1cc(F)c(S(=O)(=O)Nc3nccs3)cc1Cl)C2(Cl)Cl [Example 195, 5-Chloro-4-(((1S,3R,4R,6R)-7,7-dichloro-4-(dimethylamino)bicyclo[4.1.0]heptan-3-yl)amino)-2-fluoro-N-(thiazol-2-yl)benzenesulfonamide formate] | 8.11 | 1.4
CN(C)[C@H]1C[C@H]2[C@@H](C[C@@H]1Nc1cc(F)c(S(=O)(=O)Nc3nccs3)cc1Cl)C2(Cl)Cl [Example 196, 5-Chloro-4-(((1R,3S,4S,6S)-7,7-dichloro-4-(dimethylamino)bicyclo[4.1.0]heptan-3-yl)amino)-2-fluoro-N-(thiazol-2-yl)benzenesulfonamide formate] | 664 | 120
CN(C)[C@@H]1C[C@H]2[C@@H](C[C@H]1Nc1cc(F)c(S(=O)(=O)Nc3nccs3)cc1Cl)C2(Cl)Cl [Example 197, 5-Chloro-4-(((1R,3R,4R,6S)-7,7-dichloro-4-(dimethylamino)bicyclo[4.1.0]heptan-3-yl)amino)-2-fluoro-N-(thiazol-2-yl)benzenesulfonamide formate] | 38 | 3.85
CN(C(=O)C(C)(C)N(C)C)[C@H]1CCCC[C@@H]1Nc1cc(F)c(S(=O)(=O)Nc2nccs2)cc1Cl [Example 198, N-((1S,2S)-2-((2-Chloro-5-fluoro-4-(N-(thiazol-2-yl)sulfamoyl)phenyl)amino)-cyclohexyl)-2-(dimethylamino)-N,2-dimethylpropanamide] | 817 | 65.8
CN1CC[C@H](C(=O)N(C)[C@H]2CCCC[C@@H]2Nc2cc(F)c(S(=O)(=O)Nc3nccs3)cc2Cl)C1 [Example 199, (S)—N-((1S,2S)-2-((2-chloro-5-fluoro-4-(N-(thiazol-2-yl)sufamoyl)phenyl)amino)cyclohexyl)-N,1-dimethylpyrrolidine-3-carboxamide] | 131 | 18.7
CN1CC[C@@H](C(=O)N(C)[C@H]2CCCC[C@@H]2Nc2cc(F)c(S(=O)(=O)Nc3nccs3)cc2Cl)C1 [Example 200, (R)—N-((1S,2S)-2-((2-chloro-5-fluoro-4-(N-(thiazol-2-yl)sulfamoyl)phenyl)amino)cyclohexyl)-N,1-dimethylpyrrolidine-3-carboxamide] | 150 | 16.7
CN1CCC[C@H]1C(=O)N(C)[C@H]1CCCC[C@@H]1Nc1cc(F)c(S(=O)(=O)Nc2nccs2)cc1Cl [Example 201, (S)—N-((1S,2S)-2-((2-chloro-5-fluoro-4-(N-(thiazol-2-yl)sulfamoyl)phenyl)amino)cyclohexyl)-N,1-dimethylpyrrolidine-2-carboxamide] | 308 | 29.6
CN1CC[C@H]1C(=O)N(C)[C@H]1CCCC[C@@H]1Nc1cc(F)c(S(=O)(=O)Nc2nccs2)cc1Cl [Example 202, (S)—N-((1S,2S)-2-((2-chloro-5-fluoro-4-(N-(thiazol-2-yl)sulfamoyl)phenyl)amino)cyclohexyl)-N,1-dimethylazetidine-2-carboxamide] | 245 | 34.4
CN(C)[C@H]1C[C@@H](C(F)(F)F)CC[C@@H]1Nc1cc(F)c(S(=O)(=O)Nc2ccncn2)cc1C1CCC1 [Example 203, 5-cyclobutyl-4-(((1S,2S,4S)-2-(dimethylamino)-4-(trifluoromethyl)cyclohexyl)amino)-2-fluoro-N-(pyrimidin-4-yl)benzenesulfonamide] | 80.6 | 11.6
CN1CCC[C@@H]1C(=O)N(C)[C@H]1CCCC[C@@H]1Nc1cc(F)c(S(=O)(=O)Nc2nccs2)cc1Cl [Example 204, (R)—N-((1S,2S)-2-((2-Chloro-5-fluoro-4-(N-(thiazol-2-yl)sulfamoyl)phenyl)amino)cyclohexyl)-N,1-dimethylpyrrolidine-2-carboxamide] | 308 | 20.5
